Among the data in ChEMBL document CHEMBL3352432, “Synthesis and biological evaluation of 2-anilino-4-substituted-7H-pyrrolopyrimidines as PDK1 inhibitors” (Bioorg Med Chem, 2014) are inhibition and IC50 values, retold here.

One assay addresses T1, 3-phosphoinositide-dependent protein kinase 1 (Homo sapiens) (UniProt O15530).
T1 sequence (whole entry): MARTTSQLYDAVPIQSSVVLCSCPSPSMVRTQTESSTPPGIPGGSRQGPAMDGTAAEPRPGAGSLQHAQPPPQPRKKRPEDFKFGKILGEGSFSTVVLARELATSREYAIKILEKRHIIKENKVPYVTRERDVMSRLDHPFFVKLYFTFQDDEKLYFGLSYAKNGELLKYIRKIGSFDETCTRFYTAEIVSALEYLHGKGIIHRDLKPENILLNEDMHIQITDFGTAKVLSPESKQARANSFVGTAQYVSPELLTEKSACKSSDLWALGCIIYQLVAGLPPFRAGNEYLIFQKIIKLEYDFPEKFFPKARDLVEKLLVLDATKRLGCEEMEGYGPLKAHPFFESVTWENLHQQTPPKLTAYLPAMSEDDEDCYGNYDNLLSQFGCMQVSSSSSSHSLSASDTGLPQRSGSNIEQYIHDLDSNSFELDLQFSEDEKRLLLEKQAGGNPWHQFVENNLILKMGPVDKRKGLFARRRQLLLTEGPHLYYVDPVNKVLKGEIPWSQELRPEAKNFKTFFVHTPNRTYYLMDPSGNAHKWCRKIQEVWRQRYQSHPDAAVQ
Description: Inhibition of PDK1 (unknown origin) expressed in HEK293 cells using PDKtide as substrate at 10 uM after 10 mins by liquid scintillation counting in presence of [gamma-32P]ATP.
For the compound `COc1nc(Nc2cccc(NC(=O)N3CCCC3)c2)nc2[nH]ccc12`, the inhibition (in general, the relative decrease from the control value, in per cent) was 90%.

As to `COc1cc(-c2nc(Nc3cccc(NC(=O)N4CCCC4)c3)nc3[nH]ccc23)cc(OC)c1OC`, the inhibition came to 36%.

With `COc1ccc(Nc2nc(Nc3cccc(NC(=O)N4CCCC4)c3)nc3[nH]ccc23)cc1`, the inhibition turned out to be 45%.

For `COc1ccc(-c2nc(Nc3cccc(NC(=O)N4CCCC4)c3)nc3[nH]ccc23)cc1OC`, the inhibition amounted to 65%.

Turning to `O=C(Nc1cccc(Nc2nc(Nc3ccccc3)c3cc[nH]c3n2)c1)N1CCCC1`, the inhibition is 46%.

Consider `O=C(Nc1cccc(Nc2nc(-c3ccccc3)c3cc[nH]c3n2)c1)N1CCCC1`, for which the inhibition came to 59%.

In the case of `COc1ccc(-c2nc(Nc3cccc(NC(=O)N4CCCC4)c3)nc3[nH]ccc23)cc1`, the inhibition came out at 70%.

With `O=C(Nc1cccc(Nc2nc(-c3cccc(OCc4cccnc4)c3)c3cc[nH]c3n2)c1)N1CCCC1`, the inhibition was 46%.

For the compound `COc1cccc(-c2nc(Nc3cccc(NC(=O)N4CCCC4)c3)nc3[nH]ccc23)c1`, the inhibition was determined as 48%.

Take `O=C(Nc1cccc(Nc2nc(-c3ccc4c(c3)OCO4)c3cc[nH]c3n2)c1)N1CCCC1`: the inhibition stood at 61%.

For the compound `COc1ccc(Oc2nc(Nc3cccc(NC(=O)N4CCCC4)c3)nc3[nH]ccc23)cc1`, the inhibition worked out at 65%.

Another assay addresses T2, 3-phosphoinositide-dependent protein kinase 1 (Homo sapiens, UniProt O15530).
T2 sequence (O15530 whole entry): T1 sequence (whole entry)
Description: Inhibition of PDK1 (unknown origin) expressed in HEK293 cells using PDKtide as substrate after 10 mins by liquid scintillation counting in presence of [gamma-32P]ATP.
With `COc1nc(Nc2cccc(NC(=O)N3CCCC3)c2)nc2[nH]ccc12`, the IC50 (as a rule, the concentration that inhibits the measured activity by half) was 1.2 µM.

For the compound `COc1ccc(-c2nc(Nc3cccc(NC(=O)N4CCCC4)c3)nc3[nH]ccc23)cc1`, the IC50 is 4.9 µM.
